Results taken from US20060281901A1, “Method for the production of amyloid-beta peptide using ubiquitin” (priority 2005, published 2006).

Tests used:
[1] = test system: Human neuroblastoma SH-SY5Y cell line; assay: MTT assay of cell activity (mitochondria dehydrogenase activity); assay type: cell-based; details: for degree of suppression of the cell activity by concentration (MTT): SH-SY5Y cells, 1, 2 or 4 μM, 24 hrs, FIG. 4A
Procedure: To compare the physiological activity of the genetic recombinant amyloid-β peptide produced according to the present invention with that of the amyloid-β peptide produced by a chemical synthetic method, their mitochondrial activities in eykaryotic cells were examined as follows:
First, 0.45 mg of the amyloid-β peptide prepared in Example 3 was dissolved in 20 μl of dimethyl sulfoxide, and 980 μl of DMEM was added thereto, to prepare the amyloid-β peptide solution at a concentration of 100 μM, which was stored at 4[…] for 24 hrs and subjected to centrifugation to separate the supernatant from the precipitate. The supernatant was distributed to an eppendorf tube at a volume of 50 μl and stored at −80[…].
(§1) Human neuroblastoma SH-SY5Y cell line (ATCC CRL-2266) was suspended in DMEM containing 10% FBS, distributed to each well of a 96-well plate at a concentration of 7×10^3 cells/well, and then, cultured at 37 °C for 24 hrs. The genetic recombinant amyloid-β peptide solution prepared above was added to each well at a concentration of 1, 2 or 4 μM, and the well plate was incubated at 37 °C for 24 hrs. The cell activity was measured by means of MTT (3-(4,5-dimethylthiazol-2-yl)-2,5-diphenyltetrazolium bromide) assay which is capable of measuring the in vivo mitochondria dehydrogenase activity. MTT was added to each well at a concentration of 0.8 mg/ml, and the reactants in the well were allowed to react at 37 °C for 5 hrs to induce in vivo dehydrogenase reaction of mitochondria. Formazan crystals generated from such reaction were dissolved in dimethyl sulfoxide and its adsorbance was measured at 550 nm.
Also shown in FIG. [[4a]]4A are the results obtained using the recombinant ubiquitin (H6Ub: ●) control, the ubiquitin-amyloid-β peptide fusion protein (H6Ub-Aβ42: ▪) and the chemically synthesized amyloid-β peptide (Aβ42: □).

[2] = test system: Human neuroblastoma SH-SY5Y cell line; assay: level of apoptosis by trypan blue staining; assay type: cell-based; details: 5 μM, 36 hrs, FIG. 4C
Procedure: as §1
After the cells were treated with 5 μM of the amyloid-β peptide for 36 hrs, black cells stained with trypan blue were examined to determine the level of apoptosis induced.

[3] = listed as recombinant amyloid-β peptide

rAβ42: genetic recombinant amyloid-β peptide (amyloid-beta42, SEQ ID NO: 19) cleaved from a ubiquitin fusion protein expressed in E. coli
changes in the cell activity according to the treatment time (MTT) ([1]; SH-SY5Y cells, 5 μM, 12, 24 and 48 hrs, FIG. 4B): as the treatment time becomes longer, the cell activity becomes further reduced | degree of suppression of the cell activity by concentration (MTT) [1]: can suppress the cell activity just like the chemically synthesized amyloid-β peptide | degree of suppression of the cell activity by concentration (MTT) [1, 3]: can suppress the cell activity | level of apoptosis induced (trypan blue staining) [2]: showed an apoptotic activity, which was significantly higher than the recombinant ubiquitin (H6Ub) or ubiquitin-amyloid fusion protein (H6Ub-Aβ42), the activity being equal to, or slightly higher than, the chemically synthesized amyloid-β peptide (Aβ42) | level of apoptosis induced (trypan blue staining) [2, 3]: induce apoptosis to an extent which is equal to that achievable with chemically synthesized amyloid-β peptide
